Experimental data from ChEMBL document CHEMBL4004875, “Synthesis of bulky-tailed sulfonamides incorporating pyrido[2,3-d][1,2,4]triazolo[4,3-a]pyrimidin-1(5H)-yl) moieties and evaluation of their carbonic anhydrases I, II, IV and IX inhibitory effects” (Bioorg Med Chem, 2017).
Activity calls are given as the source filed them. No cut-off for these calls is given here.

How the values were obtained:
Carbonic anhydrase 4 [1] = target: T1, Carbonic anhydrase 4 (Homo sapiens, UniProt P22748); experiment: Inhibition of recombinant human membrane-associated carbonic anhydrase 4 assessed as inhibition of CO2 hydration up to 100 uM preincubated for 15 mins prior to testing by phenol red based stopped-flow CO2 hydration assay
Carbonic anhydrase 9 = Carbonic anhydrase 9 (Homo sapiens, UniProt Q16790)
Description: Inhibition of recombinant human tumor-associated carbonic anhydrase 9 assessed as inhibition of CO2 hydration preincubated for 15 mins prior to testing by phenol red based stopped-flow CO2 hydration assay

Carbonic anhydrase 1 [2] = target: T2, Carbonic anhydrase 1 (Homo sapiens, UniProt P00915); experiment: Inhibition of recombinant human cytosolic carbonic anhydrase 1 assessed as inhibition of CO2 hydration up to 100 uM preincubated for 15 mins prior to testing by phenol red based stopped-flow CO2 hydration assay
Target sequence in this assay (P00915 2-261 limits assumed): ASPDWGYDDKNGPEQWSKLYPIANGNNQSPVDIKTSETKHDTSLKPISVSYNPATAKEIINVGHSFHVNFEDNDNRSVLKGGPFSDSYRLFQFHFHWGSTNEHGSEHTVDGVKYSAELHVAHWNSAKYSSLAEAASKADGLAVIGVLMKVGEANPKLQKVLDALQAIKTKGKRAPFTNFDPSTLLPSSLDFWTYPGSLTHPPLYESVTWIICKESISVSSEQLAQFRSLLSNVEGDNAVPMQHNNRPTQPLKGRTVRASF

Carbonic anhydrase 1 [3] = target: T2, Carbonic anhydrase 1; experiment: Inhibition of recombinant human cytosolic carbonic anhydrase 1 assessed as inhibition of CO2 hydration preincubated for 15 mins prior to testing by phenol red based stopped-flow CO2 hydration assay
Target sequence in this assay (P00915 whole entry): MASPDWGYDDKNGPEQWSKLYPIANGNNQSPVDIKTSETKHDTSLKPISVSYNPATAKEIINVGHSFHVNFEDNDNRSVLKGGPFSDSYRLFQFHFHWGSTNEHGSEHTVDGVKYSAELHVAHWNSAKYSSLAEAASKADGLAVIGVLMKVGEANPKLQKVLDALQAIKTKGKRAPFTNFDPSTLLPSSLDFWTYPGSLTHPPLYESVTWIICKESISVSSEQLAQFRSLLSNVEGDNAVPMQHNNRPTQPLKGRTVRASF

Carbonic anhydrase 2 = Carbonic anhydrase 2 (Homo sapiens, UniProt P00918); experiment: Inhibition of recombinant human carbonic anhydrase 2 assessed as inhibition of CO2 hydration preincubated for 15 mins prior to testing by phenol red based stopped-flow CO2 hydration assay
Carbonic anhydrase 4 [4] = target: T1, Carbonic anhydrase 4; experiment: Inhibition of recombinant human membrane-associated carbonic anhydrase 4 assessed as inhibition of CO2 hydration preincubated for 15 mins prior to testing by phenol red based stopped-flow CO2 hydration assay

T1 sequence (P22748 whole entry): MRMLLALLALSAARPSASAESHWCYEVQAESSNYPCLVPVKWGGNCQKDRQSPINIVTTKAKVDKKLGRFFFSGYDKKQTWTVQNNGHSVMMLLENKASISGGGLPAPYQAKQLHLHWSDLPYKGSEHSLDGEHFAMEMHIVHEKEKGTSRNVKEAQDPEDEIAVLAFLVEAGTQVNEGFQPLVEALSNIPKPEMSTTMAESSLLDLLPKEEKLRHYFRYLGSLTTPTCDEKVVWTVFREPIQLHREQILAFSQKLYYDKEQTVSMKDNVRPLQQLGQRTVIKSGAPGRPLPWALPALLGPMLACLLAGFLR

Ki (Carbonic anhydrase 9) | SMILES | further results
1900 nM | CCOC(=O)c1nn(-c2ccc(S(N)(=O)=O)cc2)c2nc3nc(-c4cccs4)cc(-c4ccccc4)c3c(=O)n12 | inhibition (Carbonic anhydrase 4 [1]): inactive
1620 nM | CCOC(=O)c1nn(-c2ccc(S(N)(=O)=O)cc2)c2nc3nc(-c4cccs4)cc(-c4ccc(F)cc4)c3c(=O)n12 | inhibition (Carbonic anhydrase 1 [2]): inactive
250 nM | CC(=O)c1nn(-c2ccc(S(N)(=O)=O)cc2)c2nc3nc(-c4ccc(Cl)cc4)cc(-c4ccc(F)cc4)c3c(=O)n12 | –
190 nM | CC(=O)c1nn(-c2ccc(S(N)(=O)=O)cc2)c2nc3nc(-c4cccs4)cc(-c4ccc(F)cc4)c3c(=O)n12 | –
990 nM | CC(=O)c1nn(-c2ccc(S(N)(=O)=O)cc2)c2nc3nc(-c4cccs4)cc(-c4ccc(Cl)cc4)c3c(=O)n12 | inhibition (Carbonic anhydrase 1 [2]): inactive
380 nM | CCOC(=O)c1nn(-c2ccc(S(N)(=O)=O)cc2)c2nc3nc(-c4cccs4)cc(-c4ccc(OC)cc4)c3c(=O)n12 | –
1120 nM | CC(=O)c1nn(-c2ccc(S(N)(=O)=O)cc2)c2nc3nc(-c4cccs4)cc(-c4ccccc4)c3c(=O)n12 | Ki (Carbonic anhydrase 1 [3]): 6780 nM; Ki (Carbonic anhydrase 2): 730 nM; Ki (Carbonic anhydrase 4 [4]): 4790 nM
390 nM | CCOC(=O)c1nn(-c2ccc(S(N)(=O)=O)cc2)c2nc3nc(-c4cccs4)cc(-c4ccc(Cl)cc4)c3c(=O)n12 | –
350 nM | CC(=O)c1nn(-c2ccc(S(N)(=O)=O)cc2)c2nc3nc(-c4ccc(Cl)cc4)cc(-c4ccc(Cl)cc4)c3c(=O)n12 | –
20 nM | Cc1ccc(-c2cc(C(F)(F)F)nn2-c2ccc(S(N)(=O)=O)cc2)cc1 [CELECOXIB] | Ki (Carbonic anhydrase 4 [4]): 290 nM
1100 nM | CCOC(=O)c1nn(-c2ccc(S(N)(=O)=O)cc2)c2nc3nc(-c4cccs4)cc(-c4ccc([N+](=O)[O-])cc4)c3c(=O)n12 | –
1450 nM | CCOC(=O)c1nn(-c2ccc(S(N)(=O)=O)cc2)c2nc3nc(-c4ccc(Cl)cc4)cc(-c4ccc(OC)cc4)c3c(=O)n12 | inhibition (Carbonic anhydrase 4 [1]): inactive
3260 nM | CCOC(=O)c1nn(-c2ccc(S(N)(=O)=O)cc2)c2nc3nc(-c4ccc(Cl)cc4)cc(-c4ccccc4)c3c(=O)n12 | inhibition (Carbonic anhydrase 1 [2]): inactive
330 nM | CC(=O)c1nn(-c2ccc(S(N)(=O)=O)cc2)c2nc3nc(-c4ccc(Cl)cc4)cc(-c4ccc([N+](=O)[O-])cc4)c3c(=O)n12 | –
330 nM | COc1ccc(-c2cc(-c3ccc(Cl)cc3)nc3nc4n(-c5ccc(S(N)(=O)=O)cc5)nc(C(C)=O)n4c(=O)c23)cc1 | –
3240 nM | CCOC(=O)c1nn(-c2ccc(S(N)(=O)=O)cc2)c2nc3nc(-c4ccc(Cl)cc4)cc(-c4ccc(F)cc4)c3c(=O)n12 | –
180 nM | CC(=O)c1nn(-c2ccc(S(N)(=O)=O)cc2)c2nc3nc(-c4ccc(Cl)cc4)cc(-c4ccccc4)c3c(=O)n12 | –
420 nM | COc1ccc(-c2cc(-c3cccs3)nc3nc4n(-c5ccc(S(N)(=O)=O)cc5)nc(C(C)=O)n4c(=O)c23)cc1 | –
160 nM | CC(=O)c1nn(-c2ccc(S(N)(=O)=O)cc2)c2nc3nc(-c4cccs4)cc(-c4ccc([N+](=O)[O-])cc4)c3c(=O)n12 | –
2460 nM | CCOC(=O)c1nn(-c2ccc(S(N)(=O)=O)cc2)c2nc3nc(-c4ccc(Cl)cc4)cc(-c4ccc([N+](=O)[O-])cc4)c3c(=O)n12 | –
1460 nM | CCOC(=O)c1nn(-c2ccc(S(N)(=O)=O)cc2)c2nc3nc(-c4ccc(Cl)cc4)cc(-c4ccc(Cl)cc4)c3c(=O)n12 | –
